Consider four compounds from patent US11998665B2, “Biodegradable ureteral stents, methods and uses thereof” (ASSOCIATION FOR THE ADVANCEMENT OF TISSUE ENGINEERING AND …, priority 2016, dated 2024).

The test system of series [1] is HUVEC cells (human umbilical vein endothelial cells). In words: MTT cell viability, free anti-cancer drugs, IC50 determination in HUVEC cells. The class given is cell-based. How it is done: (§1) In an embodiment, the present disclosure used a human urothelial carcinoma cell line, T24 (ATCC, U.S.A.) as a cancer cell line to model the urothelial carcinoma and human umbilical vein endothelial cells, HUVEC, (ATCC, U.S.A.) as a control, non-cancerous cell line. The T24 cell line and HUVEC cells were cultured in RPMI-1640 and EGM™-2 medium, respectively, with (10% fetal bovine serum (FBS), 1 mM L-glutamine and 1% penicillin/streptomyocin), Cells were maintained at 37° C. in a humidified 5% CO2 atmosphere.
(§2) In an embodiment, in vitro efficacy of anti-cancer drugs against T24 cells and HUVEC cells-IC50 determination. The cytotoxicity of paclitaxel, epirubicin, doxorubicin and gemcitabine was evaluated by determining the viability of T24 and HUVEC cells after exposure to medium containing the free drug at a range of concentrations from 0.01 to 2000 ng/ml. Free drugs in medium were prepared by first dissolving the anticancer drugs in DMSO (50 mg/ml) and this solution was then diluted in culture medium to achieve the desired concentration. A standard MTT cell proliferation assay (CellTiter 96® Aqueous One Solution Cell Proliferation Assay) was used to test cell viability and was performed on both cell lines to determine the half maximal inhibitory concentration (1050) of each drug. 5000 cells per well were seeded in a 96-well plate with 100 μl medium for T24 and HUVEC cells. After incubation for 24 h, the medium in each well was aspirated off and the cells were exposed to 100 μl of fresh medium containing the drugs at various concentrations for 4 h and 72 h. The cells after 4 h treatment were further cultured for 72 h in fresh (drug-free) medium. After that, the culture medium in each well was replaced by 100 μl of medium and 20 μl of CellTiter 96® AQueous One Solution Reagent, followed by 4 h incubation at 37° C. A latex rubber extract was used as negative control for cell death; while cell culture medium was used as positive control. Cell viability was quantified by UV-spectroscopy, reading the formazan absorbance at 490 nm in a microplate reader (SpectraMax i3, Molecular Devices, USA). Each sample formulation and control was tested using 12 replicates.
(§3) In an embodiment, the 1050 was determined from the fitting of the curve of cell viability, measured by MTT and the drug concentration. The fitting was performed using GraphPad software (GraphPad Prism 6.00 software, San Diego, USA).
(§4) In an embodiment, the effect of the anti-cancer drugs (IC50) when in contact with T24 and HUVEC cells was investigated by a cell viability test, namely the MTT assay. From this, the IC50 was calculated for each of the four drugs in each of the two cell lines. In this case, IC50 is a measure of the concentration needed to inhibit cell survival, and is routinely used to specify the in vitro potency of a drug (Sebaugh, 2011). The T24 cell line was chosen as a muscle invasive urothelial cancer and the HUVEC cells were used as non-cancerous control cells. The cytotoxicity evaluation was carried out either after 4 h or 72 h of exposure of the cells to the free drugs at different concentrations (FIGS. 5 A and B). […] In FIGS. 5 (A and B) it is possible to see, for both cell types the trend of concentration-dependent cytotoxicity. These are similar, in all cases and as it would be expected the 72 h exposure present a higher killing efficacy. Comparing the results between the two cells it is possible to conclude that the cancer cells are much more sensitive to the anti-cancer drugs compared with the HUVEC cells.

The test system of series [2] is T24 cells (human urothelial carcinoma cell line). In words: MTT cell viability, free anti-cancer drugs, IC50 determination in T24 cells. It is filed as cell-based. How it is done:
as §1, §2, §3, §4

A short description of series [3]: Quantity of drug impregnated in stents by scCO2 (UV-spectroscopy after degradation in AUS). The class given is physicochemical. The settings on record: for Quantity of drug impregnated by scCO2: 90 min, 100 bar, 40° C.; for % loaded: amount of drug impregnated by scCO2 in BUS; for increase in the impregnation yield when ethanol was used as a co-solvent: DrugEtOH versus pure scCO2. How it is done: In an embodiment, a supercritical CO2 impregnation of anti-cancer drugs was performed, in the biodegradable ureteral stents (BUS) of the present disclosure. The were biodegradable ureteral stents prepared were placed in high-pressure vessel with anti-cancer drugs (10 mg) according to FIG. 2. The anti-cancer drugs were impregnated in the stents with and without the presence of a co-solvent. The scCO2 impregnation conditions used were 100 bar at 40° C. and 90 min. Carbon dioxide was liquefied and pumped to the desired pressure using a membrane pump (MCPV-71, Haskel, Germany). Impregnation took place in batch mode for 90 min followed by fast depressurization of the system. When a co-solvent was employed, 10% (v/v) ethanol was used. A commercial non-degradable ureteral stent (Biosoft® duo, Porges, Coloplast) was impregnated with same drugs at the same conditions with co-solvent, to be used as a control. To enhance the mechanical properties of the stent a PCL coating was applied. To evaluate the effect of coating on the release of the drugs the condition BUS+Co-Solvent was prepared twice and one of this batches was coated with PCL resin.
The anticancer drugs impregnation yield (I) was calculated from Eq. (1): I(%)=mdrug/mstent+mdrug×100 Eq. (1) where mstent is the polymer mass at the beginning of the process and the mdrug is the mass of the respective anticancer drug released after complete degradation of the stents in AUS. Anti-cancer drugs concentration was calculated from a calibration curve prepared from standard solutions. The samples were analyzed by UV-spectroscopy using a microplate reader (SpectraMax i3, Molecular Devices, USA) at the maximum absorbance for each drug (227 nm for PA, 254 nm for EP and DOX and 268 nm for GEM). All the experiments were performed in triplicate.
In an embodiment, impregnation efficiency of anti-cancer drugs in the biodegradable ureteral stents (BUS) was determined as a function of mass (μg) of anti-cancer drugs per mass (mg) of the polymer. In the DrugEtOH conditions, the amount of anti-cancer drug impregnated in the stents is higher, as it would be expected due to the co-solvent effect of ethanol in the enhancement of drug the solubility in CO2. The amount of impregnated paclitaxel in pure scCO2 (PAbio) was 0.046 μg mg-1, whereas those in PAEtOH condition was […] (0.067 μg mg-1). A similar percentage was reported by Yoda et al. (Yoda et al., 2011) in which the authors report the impregnation of paclitaxel in an amorphous poly(DL-lactic acid) (PDLLA) matrix. The amount of paclitaxel impregnated by Yoda et al. in PDLLA was 2-3 times higher compared with the alginate/gelatin matrix obtained in this work. This can be justified by the higher affinity of the drug-CO2 solution in the hydrophobic PDLLA matrix (Kazarian, 2000). Furthermore, PDLLA may also have greater swelling in the presence of scCO2 than the alginate/gelatin polymer blend (Cooper, 2000; Yoda et al., 2011). […] In the case of the Biosoft® duo, Porges, Coloplast stents the amount of drug impregnated is 6-times lower compared with BUS impregnated with paclitaxel under the same conditions. The lower amount of drug impregnated can be related with lower swelling ability of the polymeric matrix of the commercial stent in scCO2 and/or by lower affinity of the drugs with composition material of the Biosoft® duo, Porges, Coloplast stent.

Another series relates to T24 cancer cells. Particulars: cited from earlier work.
The mark [4] stands for this setting: 4 h exposure then 72 h in drug-free medium.
[5] abbreviates: T-24, 4 h exposure then 72 h in drug-free medium.
Setting [6] is: DrugCom: commercial non-degradable stent with co-solvent.
[7] abbreviates: DrugETOH: BUS + 10% ethanol co-solvent.
The mark [8] stands for this setting: Drugbio: BUS without co-solvent.

≈ marks a conversion by molar mass, not a printed value. Read-outs that look alike come from different tables or passages of the source.

As a reminder, the IC50 is the point on the concentration scale where inhibition reaches its midpoint. As for `CC(=O)O[C@H]1C(=O)[C@@]2(C)[C@H]([C@H](OC(=O)c3ccccc3)[C@]3(O)C[C@H](OC(=O)[C@H](O)[C@@H](NC(=O)c4ccccc4)c4ccccc4)C(C)=C1C3(C)C)[C@]1(OC(C)=O)CO[C@@H]1C[C@@H]2O` [Paclitaxel, paclitaxel], the IC50 in series [1] (setting [4]) was 0.85 µg/mL (≈ 0.995 µM); in series [1] (72 h exposure) it was 0.502 µg/mL (≈ 0.587 µM); in series [2] (setting [5]), 0.282 µg/mL (≈ 0.33 µM); in series [2] (T-24, 72 h exposure), 0.0073 µg/mL (≈ 0.00855 µM); in the series on T24 cancer cells (paclitaxel, Hadaschik et al., 2008), 0.00285 µg/mL (≈ 0.00334 µM). Further, the “Quantity of drug impregnated by scCO2” value in series [3] (setting [6]) amounted to 0.014 μgdrug/mgpolymer; in series [3] (setting [7]) it was 0.067 μgdrug/mgpolymer; in series [3] (setting [8]), 0.046 μgdrug/mgpolymer. Moreover, in series [3], the “% loaded” value is given as 0.01%.
Turning to `COc1cccc2c1C(=O)c1c(O)c3c(c(O)c1C2=O)C[C@@](O)(C(=O)CO)C[C@@H]3O[C@H]1C[C@H](N)[C@@H](O)[C@H](C)O1` [Epirubicin, epirubicin], the IC50 worked out at 2050 ± 33.2 µg/mL (≈ 3770 µM) in series [1] (setting [4]); 139 ± 13.6 µg/mL (≈ 256 µM) in series [1] (72 h exposure); 67 ± 2.34 µg/mL (≈ 123 µM) in series [2] (setting [5]); 15.7 ± 1.02 µg/mL (≈ 29 µM) in series [2] (T-24, 72 h exposure). Besides, the “Quantity of drug impregnated by scCO2” value amounted to 0.118 μgdrug/mgpolymer in series [3] (setting [6]), 1.779 μgdrug/mgpolymer in series [3] (setting [7]) and 1.498 μgdrug/mgpolymer in series [3] (setting [8]). Also, in series [3], the “increase in the impregnation yield when ethanol was used as a co-solvent” value (“increase in the impregnation yield” below) amounted to 15%.
For the compound `Nc1ccn([C@@H]2O[C@H](CO)[C@@H](O)C2(F)F)c(=O)n1` [Gemcitabine, gemcitabine], the IC50 in series [1] (setting [4]) amounted to 413.6 ± 2.68 µg/mL (≈ 1570 µM); in series [1] (72 h exposure) it was 237 ± 16.7 µg/mL (≈ 901 µM); in series [2] (setting [5]), 99 ± 1.29 µg/mL (≈ 376 µM); in series [2] (T-24, 72 h exposure), 0.89 ± 0.27 µg/mL (≈ 3.38 µM). Besides, the “Quantity of drug impregnated by scCO2” value is 2.312 μgdrug/mgpolymer in series [3] (setting [6]); 19.572 μgdrug/mgpolymer in series [3] (setting [7]); 19.57 μgdrug/mgpolymer in series [3] (DrugETOH: BUS + 10% ethanol co-solvent, listed as gemcitabine); 18.183 μgdrug/mgpolymer in series [3] (setting [8]). In addition, in series [3], the “increase in the impregnation yield” value worked out at 8%. The “% loaded” value in series [3] came out at 2%.
Regarding `COc1cccc2c1C(=O)c1c(O)c3c(c(O)c1C2=O)C[C@@](O)(C(=O)CO)C[C@@H]3O[C@H]1C[C@H](N)[C@H](O)[C@H](C)O1` [Doxorubicin, doxorubicin], the IC50 is 2150 ± 58.2 µg/mL (≈ 3950 µM) in series [1] (setting [4]); 647 ± 21.4 µg/mL (≈ 1190 µM) in series [1] (72 h exposure); 187 ± 5.18 µg/mL (≈ 344 µM) in series [2] (setting [5]); 29.3 ± 10 µg/mL (≈ 53.9 µM) in series [2] (T-24, 72 h exposure); 0.0116 µg/mL (≈ 0.0213 µM) with T24 cancer cells (doxorubicin, T24 cancer cells, Lu et al., 2015a); 4 µg/mL (≈ 7.36 µM) in the series on T24 cancer cells (doxorubicin, T24 cancer cells, Yu et al., 2015). The “Quantity of drug impregnated by scCO2” value is listed as 0.208 μgdrug/mgpolymer in series [3] (setting [6]), 3.748 μgdrug/mgpolymer in series [3] (setting [7]) and 3.297 μgdrug/mgpolymer in series [3] (setting [8]). Also, the “increase in the impregnation yield” value in series [3] is listed as 12%.
